Measured values from patent US20040180031A1, “Skin conditioner” (Kabushiki Kaisha Soken, priority 1999, published 2004).

How the values were obtained:
persons with atopic skin [1] = test: 2-hour moisture retention duration test on atopic skin (Test Example 9); format: in vivo, human
Procedure: A 2-hour moisture retention duration test was performed on atopic skin.

[2] = test system: normal human skin fibroblasts; test: Collagen production recovery test on damaged fibroblasts (Test Example 1); format: cell-based; conditions: 3H-proline uptake into collagen; sample final concentration 3.3%; 24 hours at 37° C.; hypoxanthine/xanthine oxidase damage; FIG. 1
Procedure: A collagen production recovery test was conducted on damaged fibroblasts. Six to eight subcultures of normal human skin fibroblasts (Physicochemical Research Institute, Cell Development Bank NBIRGB) were used in the test. […] Measurement of collagen production ability of a confluent in the steady state was performed according to the method of Webster et al. based on the uptake of ^3H-proline into the produced collagen. […] Since proline is a main component of the amino acids that compose collagen, fibroblasts are cultured in a medium containing ^3H-proline, and the ^3H activity taken up into collagen in the cells is measured. Units are in d.p.m., and represent the number of […] of radioactivity released per minute.

persons with atopic skin [3] = test: Moisture retention ability test on atopic skin, ammonium samples (Test Example 18); format: in vivo, human; conditions: FIG. 54
Procedure: A moisture retention ability test was performed on atopic skin. Test Method: Same as Test Example 3 Measurement Method: Same as Text Example 3 Test Apparatus: Same as Test Example 3

[4] = test system: volunteers with chapped skin; test: Moisture retention duration test on persons with chapped skin, ammonium samples (Test Example 17); format: in vivo, human
Procedure: A moisture retention duration test was conducted on persons with chapped skin.
Test Method: Same as Test Example 2
Measurement Method: Same as Text Example 2
Test Apparatus: Same as Test Example 2

| Compound | moisture retention duration / continuation of moisture retention (persons with atopic skin [1]) | collagen production ability of fibroblasts damaged by active oxygen [2] | moisture retention ability (persons with atopic skin [3]) | moisture retention duration [4] |
| --- | --- | --- | --- | --- |
| N=C(N)NCCC[C@H](N)C(=O)O [L-arginine] | observed | significantly improved |  |  |
| N [ammonium ions] |  |  | can be observed | can be observed |
| NCCO [ethanolamine] | observed | significantly improved |  |  |
